Results as given in PubChem BioAssay AID330 (DTP/NCI, 2004).
Several values for one entry are separate records, joined by “and”; a condition that tells them apart may be missing. Equal values may be shown once. Inconclusive results and toxic doses are left out. The calls were made as follows: active = survival T/C of 150% or more; inactive = T/C below 125% in these data. Peptide text beside a SMILES is read from it.

Tested on: P388 leukemia ip, CD2F1 mice, survival T/C
Experiment: NCI In Vivo Anticancer Drug Screen. Data for tumor model P388 Leukemia (intraperitoneal) in CD2F1 (CDF1) mice
Conditions: endpoint: median survival time, higher = longer survival
In short: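 Mice carrying the transplanted tumor received test compound or vehicle. Survival was recorded in each group, and the value is the treated-group measurement divided by that of the vehicle-treated control group.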

[1] = dose: 50.0 mg/kg/injection, schedule: Q01DX005 (ip), vehicle: Klucel (hydroxypropylcellulose) (HPC)
[2] = dose: 100.0 mg/kg/injection, schedule: Q01DX005 (ip), vehicle: Klucel (hydroxypropylcellulose) (HPC)
[3] = dose: 200.0 mg/kg/injection, schedule: Q01DX005 (ip), vehicle: Klucel (hydroxypropylcellulose) (HPC)
[4] = dose: 60.0 mg/kg/injection, schedule: Q01DX005 (ip), vehicle: Klucel (hydroxypropylcellulose) (HPC)
[5] = dose: 120.0 mg/kg/injection, schedule: Q01DX005 (ip), vehicle: Klucel (hydroxypropylcellulose) (HPC)
[6] = dose: 240.0 mg/kg/injection, schedule: Q01DX005 (ip), vehicle: Klucel (hydroxypropylcellulose) (HPC)
[7] = dose: 60.0 mg/kg/injection, schedule: Q01DX005 (ip), vehicle: saline with Tween-80
[8] = dose: 50.0 mg/kg/injection, schedule: Q01DX005 (ip), vehicle: saline with Tween-80
[9] = dose: 100.0 mg/kg/injection, schedule: Q01DX005 (ip), vehicle: saline with Tween-80
[10] = dose: 200.0 mg/kg/injection, schedule: Q01DX005 (ip), vehicle: saline with Tween-80
[11] = dose: 25.0 mg/kg/injection, schedule: Q04DX003 (ip), vehicle: saline with Tween-80
[12] = dose: 100.0 mg/kg/injection, schedule: Q04DX002 (ip), vehicle: saline with Tween-80
[13] = dose: 200.0 mg/kg/injection, schedule: Q04DX002 (ip), vehicle: saline with Tween-80
[14] = dose: 50.0 mg/kg/injection, schedule: Q01DX009 (ip), vehicle: saline with Tween-80

Measured: T/C

CCCCCCCNc1nn[nH]n1
inactive: [1] 100 % of control | [2] 104 % of control | [3] 98 % of control

CN1c2ccccc2Sc2c1n[nH]c2-c1ccccc1
inactive: [4] 104 % of control | [5] 111 % of control | [6] 119 % of control

CC(=O)OCC#CCN1CCC(C)CC1
inactive: dose: 50.0 mg/kg/injection, schedule: Q01DX005 (ip), vehicle: saline 97 % of control | dose: 100.0 mg/kg/injection, schedule: Q01DX005 (ip), vehicle: saline 95 % of control | dose: 200.0 mg/kg/injection, schedule: Q01DX005 (ip), vehicle: saline 102 % of control

O=[N+]([O-])/N=c1/nc2scc(-c3ccc([N+](=O)[O-])cc3)n2s1
inactive: dose: 1.87 mg/kg/injection, schedule: Q01DX005 (ip), vehicle: saline with Tween-80 99 % of control | dose: 3.75 mg/kg/injection, schedule: Q01DX005 (ip), vehicle: saline with Tween-80 107 % of control | dose: 7.5 mg/kg/injection, schedule: Q01DX005 (ip), vehicle: saline with Tween-80 99 % of control and 97 % of control | dose: 30.0 mg/kg/injection, schedule: Q01DX005 (ip), vehicle: saline with Tween-80 91 % of control | [7] 106 % of control | dose: 240.0 mg/kg/injection, schedule: Q01DX005 (ip), vehicle: saline with Tween-80 87 % of control

Cc1ccccc1N1CCOS(=O)OC(C)C1 (stereo not drawn)
inactive: [8] 100 % of control | [9] 104 % of control | [10] 100 % of control

CC(C)C(NC(=O)C(N)CCC(=O)O)C(=O)O (stereo not drawn) (H-Glu-Val-OH; configuration not given here)
inactive: [8] 93 % of control | [9] 100 % of control | [10] 93 % of control

CN(C)c1c(Cl)c(=O)oc2c1ccc1nc(-c3ccccc3)ncc12
inactive: [7] 97 % of control | dose: 120.0 mg/kg/injection, schedule: Q01DX005 (ip), vehicle: saline with Tween-80 88 % of control

CCN(CC)CCSC1OC(=O)c2ccccc21 (stereo not drawn)
inactive: dose: 1.25 mg/kg/injection, schedule: Q01DX009 (ip), vehicle: saline 104 % of control | dose: 2.5 mg/kg/injection, schedule: Q01DX009 (ip), vehicle: saline 103 % of control | dose: 5.0 mg/kg/injection, schedule: Q01DX009 (ip), vehicle: saline 109 % of control | dose: 10.0 mg/kg/injection, schedule: Q01DX009 (ip), vehicle: saline 109 % of control

CCc1nnc(NC(=S)NC(=O)OC)s1
inactive: [11] 100 % of control | dose: 50.0 mg/kg/injection, schedule: Q04DX003 (ip), vehicle: saline with Tween-80 105 % of control | dose: 100.0 mg/kg/injection, schedule: Q04DX003 (ip), vehicle: saline with Tween-80 105 % of control

COC(=O)c1ccc(=O)c2nc3/c(=C/O)c(O)cc(=O)c3[nH]c12
inactive: dose: 0.15 mg/kg/injection, schedule: Q04DX003 (ip), vehicle: saline 95 % of control | dose: 0.3 mg/kg/injection, schedule: Q01DX009 (ip), vehicle: saline with Tween-80 90 % of control | dose: 0.3 mg/kg/injection, schedule: Q04DX003 (ip), vehicle: saline 100 % of control | dose: 0.6 mg/kg/injection, schedule: Q04DX003 (ip), vehicle: saline 109 % of control

Cc1cc(N/N=C/c2ccc(N(CCCl)CCCl)cc2)c2cc3c(cc2n1)OCO3
inactive: [11] 111 % of control

COC(=O)c1ccc(OC)c(OC)c1-c1c(C(=O)OC)c(C(=O)OC)c2n1CCc1cc3c(cc1-2)OCO3
inactive: dose: 50.0 mg/kg/injection, schedule: Q04DX002 (ip), vehicle: saline with Tween-80 103 % of control | [12] 100 % of control | [13] 90 % of control

O=CNc1ncc([N+](=O)[O-])s1
inactive: dose: 12.5 mg/kg/injection, schedule: Q01DX009 (ip), vehicle: saline with Tween-80 95 % of control | dose: 25.0 mg/kg/injection, schedule: Q01DX009 (ip), vehicle: saline with Tween-80 90 % of control | [14] 100 % of control and 102 % of control

CCOC(=O)C1C(=O)N2C(=O)C(NC(C)=O)=C(O)C2C1c1ccc(Cl)cc1 (stereo not drawn)
inactive: [12] 100 % of control | [13] 105 % of control | dose: 400.0 mg/kg/injection, schedule: Q04DX002 (ip), vehicle: saline with Tween-80 98 % of control

COC1CC(OC2CCC3(C)C(=CCC4C3C(OC(C)=O)C(OC(=O)CC(C)C)C3(C)C(C(C)=O)CCC43O)C2)OC(C)C1OC1CC(OC)C(OC2CC(OC)C(OC3OC(C)C(O)C(OC)C3O)C(C)O2)C(C)O1 (stereo not drawn)
inactive: dose: 4.13 mg/kg/injection, schedule: Q01DX005 (ip), vehicle: Klucel (hydroxypropylcellulose) (HPC) 87 % of control | dose: 8.25 mg/kg/injection, schedule: Q01DX005 (ip), vehicle: Klucel (hydroxypropylcellulose) (HPC) 101 % of control

c1cc2c3c(c1)CCC3CCC2 (stereo not drawn)
inactive: [14] 112 % of control | dose: 100.0 mg/kg/injection, schedule: Q01DX009 (ip), vehicle: saline with Tween-80 109 % of control and 117 % of control | dose: 200.0 mg/kg/injection, schedule: Q01DX009 (ip), vehicle: saline with Tween-80 118 % of control

Cc1ccc(C(C)(C)O)cc1O
inactive: dose: 8.75 mg/kg/injection, schedule: Q01DX005 (ip), vehicle: Klucel + Tween-80 100 % of control | dose: 17.5 mg/kg/injection, schedule: Q01DX005 (ip), vehicle: Klucel + Tween-80 100 % of control | dose: 35.0 mg/kg/injection, schedule: Q01DX005 (ip), vehicle: Klucel + Tween-80 103 % of control | dose: 70.0 mg/kg/injection, schedule: Q01DX005 (ip), vehicle: Klucel + Tween-80 103 % of control

COc1cccc2c1C(=O)c1c(O)c3c(c(O)c1C2=O)C[C@@](O)(C(C)=O)[C@@H](OC)[C@@H]3OC1CC(N)C(O)C(C)O1 (stereo partly drawn)
inactive: dose: 0.6 mg/kg/injection, schedule: Q04DX003 (ip), vehicle: water 103 % of control | dose: 1.2 mg/kg/injection, schedule: Q04DX003 (ip), vehicle: water 122 % of control | dose: 2.4 mg/kg/injection, schedule: Q04DX003 (ip), vehicle: water 108 % of control | dose: 2.5 mg/kg/injection, schedule: Q04DX003 (ip), vehicle: water 108 % of control | dose: 4.8 mg/kg/injection, schedule: Q04DX003 (ip), vehicle: water 123 % of control | dose: 5.0 mg/kg/injection, schedule: Q04DX003 (ip), vehicle: water 108 % of control

O=S(=O)(N/N=C/c1cccc(Cl)c1)c1ccccc1
inactive: [4] 109 % of control | [5] 104 % of control | [6] 105 % of control

CCCCOP(=O)(O)OCCCC.[Th]
inactive: dose: 25.0 mg/kg/injection, schedule: Q01DX001 (ip), vehicle: saline with Tween-80 113 % of control | dose: 50.0 mg/kg/injection, schedule: Q01DX001 (ip), vehicle: saline with Tween-80 100 % of control | dose: 100.0 mg/kg/injection, schedule: Q01DX001 (ip), vehicle: saline with Tween-80 102 % of control | dose: 400.0 mg/kg/injection, schedule: Q01DX001 (ip), vehicle: saline with Tween-80 97 % of control

C#CCCCOC1CCCCO1 (stereo not drawn)
inactive: dose: 60.0 mg/kg/injection, schedule: Q01DX005 (ip), vehicle: saline 100 % of control | dose: 120.0 mg/kg/injection, schedule: Q01DX005 (ip), vehicle: saline 100 % of control | dose: 240.0 mg/kg/injection, schedule: Q01DX005 (ip), vehicle: saline 100 % of control

COC(=O)N1C2CCCCC2=NN(c2ccccc2)N1C(=O)OC (stereo not drawn)
inactive: dose: 25.0 mg/kg/injection, schedule: Q01DX005 (ip), vehicle: Klucel (hydroxypropylcellulose) (HPC) 100 % of control | [1] 98 % of control | [2] 93 % of control | [3] 91 % of control
